One compound from patent publication US11690911B2, “Combination of ATR kinase inhibitors and PD-1/PD-L1 inhibitors” (Bayer Pharma Aktiengesellschaft, priority 2017, dated 2023) can be followed below.

Series [1] deals with murine syngeneic lymphoma model A20. Conditions: mouse, in vivo, po, 50 mg/kg.
Description: (§1) KLN205) or three (CT26 and MC38 study 1) or only one (MC38 study 2) different combination schedules were tested:
(§2) The oral application volume was 10 ml/kg and the intravenous application volume 5 ml/kg. The time interval between two applications per day was 6-7 h. The tumor size and the body weight were determined three times weekly. Changes in the body weight were a measure of treatment-related toxicity (>10%=critical, stop of treatment until recovery, >20%=toxic, termination). The tumor volume was detected by means of an electronic caliper gauge [0.5×length in mm×(width in mm)^2]. Animals for which the tumor volume exceeded 2000 mm^3 (or for which the mean tumor volume of the group exceeds 2000 mm^3) were euthanized. In vivo anti-tumor efficacy is presented as T/C ratio (Treatment/Control) calculated with tumor volumes at day of control group termination by the formula [(tumor volume of treatment group at day x)−(tumor volume of treatment group at day before first treatment)]/[(tumor volume control group at day x)−(tumor volume of control group at day before first treatment)]. […] Statistical analysis was assessed using SigmaStat software. A one-way analysis of variance was performed and differences to the control were compared by a pair-wise comparison procedure (Dunn's method).
For series [2], the system named is murine syngeneic lung carcinoma model KLN205. Conditions: mouse, in vivo.
Description: as §1, §2
Series [3] concerns murine syngeneic colon carcinoma model CT26. The following applies: mouse, in vivo, po, 50 mg/kg.
Description: as §1, §2

On to `C[C@@H]1COCCN1c1cc(-c2ccnn2C)c2ccnc(-c3ccn[nH]3)c2n1` [Compound A, 2-[(3R)-3-methylmorpholin-4-yl]-4-(1-methyl-1H-pyrazol-5-yl)-8-(1H-pyrazol-5-yl)-1,7-naphthyridine], for which the “Max. weight loss (%)” value was −2% in series [1], −19 (d9) % in series [2] and −1% in series [3]. Also, the “body weight loss (in words)” value in series [2] is reported as “critical body weight loss”.
